Assay results published in patent US12409177B2, “FGFR inhibitors for the treatment of cancer” (BridGene Biosciences, Inc., priority 2019, dated 2025).
Like-named read-outs stand apart in the source and are kept apart here.

Legend:
[1] = molecular target: FGFR1 (Homo sapiens, UniProt P11362); assay: FGFR1 kinase inhibition (IC50); assay type: biochemical
[2] = molecular target: FGFR2 (Homo sapiens, UniProt P21802); assay: FGFR2 kinase inhibition (IC50); assay type: biochemical
[3] = molecular target: FGFR3 (Homo sapiens, UniProt P22607); assay: FGFR3 kinase inhibition (IC50); assay type: biochemical
[4] = molecular target: FGFR4 (Homo sapiens, UniProt P22455); assay: FGFR4 kinase inhibition (IC50); assay type: biochemical
[5] = MDCK permeability; assay type: in vitro ADME; conditions: dog
[6] = Protein binding; assay type: in vitro ADME
[7] = test system: Hepatocyte; assay: Mouse hepatocyte clearance; assay type: in vitro ADME; conditions: mouse hepatocytes; value ± SE
[8] = Mouse plasma stability; assay type: in vitro ADME; conditions: value ± SE, read-out: Ms Plasma Stability t1/2 (SE)
[9] = Pharmacokinetics in mice (IP, IV, PO); assay type: in vivo; conditions: for clearance / half-life / Vd / bioavailability / AUC(0-inf) / AUC(0-t) / Cmax / MRT inf / MRT last / Tmax: in vivo, mouse; for Vd: read-out: Vss
Procedure: FIG. 2A is the pharmacokinetic data of compound 1 administered by intraperitoneal injection (IP) into mice at 10 mg/kg, according to some embodiments of the present disclosure;
FIG. 2B is the pharmacokinetic data of compound 1 administered by intravenous injection (IV) into mice at 1 mg/kg and per os (PO) at 5 mg/kg, according to some embodiments of the present disclosure;

[10] = Solubility in 5% DMSO and 95% of (20% HPBC in PBS); assay type: physicochemical
Text: The inventive compound 1 improves the FGFR4-selective inhibitory effect.

[11] = Pharmacokinetics in mice (IP, IV, PO); conditions: mouse, in vivo, PO 100 mg/kg
[12] = read-out: FGFR1 Inhibition (IC50 class)
[13] = read-out: FGFR2 Inhibition (IC50 class)
[14] = read-out: FGFR3 Inhibition (IC50 class)
[15] = read-out: FGFR4 inhibition (IC50 class)

Sequence of FGFR1 (P11362 22-822): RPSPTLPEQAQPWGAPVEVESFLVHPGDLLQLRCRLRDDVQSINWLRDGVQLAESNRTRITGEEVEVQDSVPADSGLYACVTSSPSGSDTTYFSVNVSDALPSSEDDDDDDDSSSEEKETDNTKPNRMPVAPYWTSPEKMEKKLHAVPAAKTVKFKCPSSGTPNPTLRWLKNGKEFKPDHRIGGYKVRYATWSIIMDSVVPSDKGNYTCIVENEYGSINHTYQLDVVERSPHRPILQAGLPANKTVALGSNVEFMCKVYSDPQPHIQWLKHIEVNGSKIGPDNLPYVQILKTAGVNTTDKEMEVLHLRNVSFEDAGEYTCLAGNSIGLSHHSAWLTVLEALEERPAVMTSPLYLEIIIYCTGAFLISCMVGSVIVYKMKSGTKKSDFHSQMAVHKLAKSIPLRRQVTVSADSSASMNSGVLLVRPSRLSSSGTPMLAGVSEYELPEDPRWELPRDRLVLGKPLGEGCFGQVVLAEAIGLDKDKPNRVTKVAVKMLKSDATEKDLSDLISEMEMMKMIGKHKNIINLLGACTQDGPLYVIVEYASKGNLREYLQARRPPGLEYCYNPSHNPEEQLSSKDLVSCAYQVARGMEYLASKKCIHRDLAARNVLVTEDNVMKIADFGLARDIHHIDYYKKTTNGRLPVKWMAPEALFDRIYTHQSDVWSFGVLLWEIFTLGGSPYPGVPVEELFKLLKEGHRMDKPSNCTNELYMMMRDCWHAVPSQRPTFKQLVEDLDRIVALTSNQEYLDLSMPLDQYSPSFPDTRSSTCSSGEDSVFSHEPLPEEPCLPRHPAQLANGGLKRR
Sequence of FGFR4 (P22455 22-802): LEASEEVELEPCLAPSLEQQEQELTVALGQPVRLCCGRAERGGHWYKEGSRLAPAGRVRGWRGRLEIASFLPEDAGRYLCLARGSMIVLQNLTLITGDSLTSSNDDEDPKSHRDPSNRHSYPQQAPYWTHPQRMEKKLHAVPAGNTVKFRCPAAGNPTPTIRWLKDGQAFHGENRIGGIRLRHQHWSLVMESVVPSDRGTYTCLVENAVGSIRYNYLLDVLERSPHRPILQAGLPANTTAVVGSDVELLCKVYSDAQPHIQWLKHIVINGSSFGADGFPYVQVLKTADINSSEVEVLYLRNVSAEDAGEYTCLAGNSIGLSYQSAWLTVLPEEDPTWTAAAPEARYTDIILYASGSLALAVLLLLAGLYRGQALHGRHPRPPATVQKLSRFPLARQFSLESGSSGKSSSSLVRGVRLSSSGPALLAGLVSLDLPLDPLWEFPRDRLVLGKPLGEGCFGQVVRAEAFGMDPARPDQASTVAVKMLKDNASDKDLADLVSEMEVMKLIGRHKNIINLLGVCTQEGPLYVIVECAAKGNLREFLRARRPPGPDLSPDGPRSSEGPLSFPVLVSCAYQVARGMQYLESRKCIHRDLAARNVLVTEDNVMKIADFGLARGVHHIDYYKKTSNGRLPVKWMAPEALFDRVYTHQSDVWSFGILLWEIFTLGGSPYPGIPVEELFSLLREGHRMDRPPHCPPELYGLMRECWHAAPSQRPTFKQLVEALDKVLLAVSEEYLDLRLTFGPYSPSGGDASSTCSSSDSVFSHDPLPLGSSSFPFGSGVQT
Sequence of FGFR2 (P21802 22-821): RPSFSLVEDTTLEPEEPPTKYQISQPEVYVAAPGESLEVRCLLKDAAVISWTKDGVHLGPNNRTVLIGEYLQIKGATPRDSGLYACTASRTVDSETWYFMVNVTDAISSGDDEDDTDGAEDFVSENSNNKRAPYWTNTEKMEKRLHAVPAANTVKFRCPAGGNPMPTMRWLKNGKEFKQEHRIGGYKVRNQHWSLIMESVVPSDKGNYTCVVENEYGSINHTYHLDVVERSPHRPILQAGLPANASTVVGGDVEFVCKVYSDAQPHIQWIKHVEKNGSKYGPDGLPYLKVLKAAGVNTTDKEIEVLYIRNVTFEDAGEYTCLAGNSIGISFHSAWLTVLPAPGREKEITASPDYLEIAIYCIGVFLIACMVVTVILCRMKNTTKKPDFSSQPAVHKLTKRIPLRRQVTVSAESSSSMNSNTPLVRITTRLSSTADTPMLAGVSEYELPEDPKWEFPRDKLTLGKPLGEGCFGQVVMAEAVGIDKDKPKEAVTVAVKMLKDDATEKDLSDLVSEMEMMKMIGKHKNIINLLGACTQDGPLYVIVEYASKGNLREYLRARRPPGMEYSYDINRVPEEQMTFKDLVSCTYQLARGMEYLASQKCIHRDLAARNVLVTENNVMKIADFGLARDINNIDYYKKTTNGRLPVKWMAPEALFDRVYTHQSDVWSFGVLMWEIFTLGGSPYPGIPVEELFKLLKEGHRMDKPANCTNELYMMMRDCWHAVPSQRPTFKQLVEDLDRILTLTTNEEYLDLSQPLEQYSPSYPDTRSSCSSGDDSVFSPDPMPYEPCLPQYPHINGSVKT
Sequence of FGFR3 (P22607 23-806): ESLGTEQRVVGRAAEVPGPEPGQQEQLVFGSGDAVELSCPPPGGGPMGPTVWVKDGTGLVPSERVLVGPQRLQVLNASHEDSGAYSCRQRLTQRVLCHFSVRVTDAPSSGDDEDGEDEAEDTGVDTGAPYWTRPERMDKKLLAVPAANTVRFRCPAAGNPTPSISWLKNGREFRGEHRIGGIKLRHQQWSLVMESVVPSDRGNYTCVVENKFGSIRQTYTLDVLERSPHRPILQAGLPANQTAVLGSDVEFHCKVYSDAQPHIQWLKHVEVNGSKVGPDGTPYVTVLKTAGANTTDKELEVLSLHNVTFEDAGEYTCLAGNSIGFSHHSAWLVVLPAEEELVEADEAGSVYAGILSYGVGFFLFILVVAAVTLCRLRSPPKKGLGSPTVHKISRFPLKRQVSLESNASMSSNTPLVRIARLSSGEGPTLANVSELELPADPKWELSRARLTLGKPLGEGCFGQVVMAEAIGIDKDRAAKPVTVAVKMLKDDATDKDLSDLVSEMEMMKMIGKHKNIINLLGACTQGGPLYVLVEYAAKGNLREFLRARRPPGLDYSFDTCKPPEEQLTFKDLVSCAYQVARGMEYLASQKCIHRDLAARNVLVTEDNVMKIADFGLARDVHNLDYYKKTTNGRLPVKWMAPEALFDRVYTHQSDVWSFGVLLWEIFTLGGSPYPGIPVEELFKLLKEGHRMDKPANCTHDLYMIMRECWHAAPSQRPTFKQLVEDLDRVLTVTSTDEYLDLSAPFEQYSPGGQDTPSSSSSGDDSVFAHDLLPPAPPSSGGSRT

In the case of C=CC(=O)N[C@H]1COC[C@H]1Nc1cc(-c2cccnc2Nc2c(Cl)c(OC)cc(OC)c2Cl)ncn1 [Compound 1], the IC50 [1, 12] is reported as no less than 1000 nM, the IC50 ([1]; read-out: IC50 towards FGFR1) is reported as 1280 nM and the IC50 [2, 13] is reported as no less than 1000 nM. The IC50 ([2]; read-out: IC50 towards FGFR2) was 1870 nM, the IC50 [3, 14] was no less than 1000 nM and the IC50 ([3]; read-out: IC50 towards FGFR3) was 4440 nM. The IC50 [4, 15] was 10 to 100 nM, the IC50 ([4]; read-out: IC50 towards FGFR4) was 20 nM and the Papp A→B [5] was 25.8 ×10⁻⁶ cm/s. For the same compound, the fraction unbound [6] was 0.08, the Hepatocyte Clin Ms (SE) [7] was 43.6 ± 1.3 µL/min/1e6 cells and the half-life [8] was 19.1 ± 5.78 h. It also gave a clearance ([9]; intravenous, Table 2 summary) of 26.7 mL/min/kg, a half-life ([9]; intravenous, Table 2 summary) of 0.52 h and a Vd ([9]; intravenous, Table 2 summary) of 0.88 L/kg. It also gave a bioavailability ([9]; oral, Table 2 summary) of 20.9%, an AUC(0-inf) ([9]; mice, IP 10 mg/kg) of 9610 ng·h/mL and an AUC(0-t) ([9]; mice, IP 10 mg/kg) of 9610 ng·h/mL. It also gave a Cmax ([9]; mice, IP 10 mg/kg) of 14900 ng/mL, an MRT inf ([9]; mice, IP 10 mg/kg) of 0.67 h and an MRT last ([9]; mice, IP 10 mg/kg) of 0.67 h. For the same compound, the Tmax ([9]; mice, IP 10 mg/kg) was 0.25 h, the half-life ([9]; mice, IP 10 mg/kg) was 2.81 h and the AUC(0-inf) ([9]; mice, IV 1 mg/kg) was 621 ng·h/mL. For the same compound, the AUC(0-t) ([9]; mice, IV 1 mg/kg) was 618 ng·h/mL, the Cmax ([9]; mice, IV 1 mg/kg) was 849 ng/mL and the MRT inf ([9]; mice, IV 1 mg/kg) was 0.537 h. For the same compound, the MRT last ([9]; mice, IV 1 mg/kg) was 0.515 h, the Tmax ([9]; mice, IV 1 mg/kg) was 0.083 h and the clearance ([9]; mice, IV 1 mg/kg) was 27.2 mL/min/kg. It also gave a half-life ([9]; mice, IV 1 mg/kg) of 0.522 h, a Vd ([9]; mice, IV 1 mg/kg) of 0.876 L/kg and an AUC(0-inf) ([9]; mice, PO 5 mg/kg) of 648 ng·h/mL. It also gave an AUC(0-t) ([9]; mice, PO 5 mg/kg) of 465 ng·h/mL, a Cmax ([9]; mice, PO 5 mg/kg) of 119 ng/mL and an MRT inf ([9]; mice, PO 5 mg/kg) of 4.02 h. The MRT last ([9]; mice, PO 5 mg/kg) was 3.42 h, the Tmax ([9]; mice, PO 5 mg/kg) was 3.17 h and the bioavailability ([9]; mice, PO 5 mg/kg) was 20.9%. The half-life ([9]; mice, PO 5 mg/kg) was 2.73 h and the solubility [10] was “much-improved solubility”.
C=CC(=O)N[C@H]1CCC[C@H]1Nc1cc(-c2cccnc2Nc2c(Cl)c(OC)cc(OC)c2Cl)ncn1 (single isomer, unassigned) [Compound 16, N-[cis-2-[[6-[2-(2,6-dichloro-3,5-dimethoxy-anilino)-3-pyridyl]pyrimidin-4-yl]amino]cyclopentyl]prop-2-enamide] gave an IC50 [4, 15] of 100 to 1000 nM.
For C=CC(=O)NC1CC1Nc1cc(-c2cccnc2Nc2c(Cl)c(OC)cc(OC)c2Cl)ncn1 (centres unmarked) [Compound 2], the IC50 [1, 12] was 10 to 100 nM, the IC50 [2, 13] was 100 to 1000 nM and the IC50 [3, 14] was 100 to 1000 nM. For the same compound, the IC50 [4, 15] was no more than 10 nM.
Compound C=CC(=O)N[C@H]1CC[C@H]1Nc1cc(-c2cccnc2Nc2c(Cl)c(OC)cc(OC)c2Cl)ncn1 [Compound 3] has an IC50 [4, 15] of 100 to 1000 nM.
C=CC(=O)Nc1cc(OC2CCOC2)ccc1Nc1cc(-c2cccnc2Nc2c(Cl)c(OC)cc(OC)c2Cl)ncn1 (centres unmarked) [Compound 10, N-[2-[[6-[2-(2,6-dichloro-3,5-dimethoxy-anilino)-3-pyridyl]pyrimidin-4-yl]amino]-5-tetrahydrofuran-3-yloxy-phenyl]prop-2-enamide] showed an IC50 [1, 12] of no less than 1000 nM, an IC50 [2, 13] of no less than 1000 nM and an IC50 [3, 14] of no less than 1000 nM. The IC50 [4, 15] was no more than 10 nM.
For C=CC(=O)Nc1cc(OC2CN(C)C2)ccc1Nc1cc(-c2cccnc2Nc2c(Cl)c(OC)cc(OC)c2Cl)ncn1 [Compound 6, N-[2-[[6-[2-(2,6-dichloro-3,5-dimethoxy-anilino)-3-pyridyl]pyrimidin-4-yl]amino]-5-(1-methylazetidin-3-yl)oxy-phenyl]prop-2-enamide], the IC50 [1, 12] was 100 to 1000 nM, the IC50 [2, 13] was 100 to 1000 nM and the IC50 [3, 14] was no less than 1000 nM. It also gave an IC50 [4, 15] of no more than 10 nM.
C=CC(=O)Nc1cccc(C)c1Nc1cc(-c2cccnc2Nc2c(Cl)c(OC)cc(OC)c2Cl)ncn1 [Compound 5, N-(2-((6-(2-((2,6-dichloro-3,5-dimethoxyphenyl)amino)pyridin-3-yl)pyrimidin-4-yl)amino)-3-methylphenyl)acrylamide, reference compound] showed a Papp A→B [5] of 11.4 ×10⁻⁶ cm/s, a Hepatocyte Clin Ms (SE) [7] of 41.7 ± 1.73 µL/min/1e6 cells and a half-life [8] of 3.69 ± 0.928 h. It also gave a clearance ([9]; intravenous, Table 2 summary) of 14 mL/min/kg, a half-life ([9]; intravenous, Table 2 summary) of 15 h and a bioavailability ([9]; oral, Table 2 summary) of 8%. The T1/2 ([9]; mice, IP 10 mg/kg) was 1.23 h, the AUC(0-inf) ([9]; mice, IP 10 mg/kg) was 1280 ng·h/mL and the AUC(0-t) ([9]; mice, IP 10 mg/kg) was 1270 ng·h/mL. For the same compound, the Cmax ([9]; mice, IP 10 mg/kg) was 865 ng/mL, the MRT inf ([9]; mice, IP 10 mg/kg) was 1.66 h and the MRT last ([9]; mice, IP 10 mg/kg) was 1.57 h. For the same compound, the Tmax ([9]; mice, IP 10 mg/kg) was 0.25 h, the AUC(0-inf) ([9]; mice, IV 5 mg/kg) was 1240 ng·h/mL and the AUC(0-t) ([9]; mice, IV 5 mg/kg) was 896 ng·h/mL. It also gave a Cmax ([9]; mice, IV 5 mg/kg) of 470 ng/mL, an MRT inf ([9]; mice, IV 5 mg/kg) of 18.5 h and an MRT last ([9]; mice, IV 5 mg/kg) of 7.71 h. It also gave a Tmax ([9]; mice, IV 5 mg/kg) of 0.083 h, a clearance ([9]; mice, IV 5 mg/kg) of 13.9 mL/min/kg and a half-life ([9]; mice, IV 5 mg/kg) of 15.1 h. The Vd ([9]; mice, IV 5 mg/kg) was 15.3 L/kg, the Cmax ([9]; mice, PO 100 mg/kg) was 180 ng/mL and the MRT last ([9]; mice, PO 100 mg/kg) was 6.1 h. For the same compound, the solubility [10] was “poor solubility”, the AUC(0-t) [11] was 1450 ng·h/mL and the Tmax [11] was 6.67 h. The bioavailability [11] was 8.09%.
In the case of C=CC(=O)Nc1cc(OC2CCN(C)CC2)ccc1Nc1cc(-c2cccnc2Nc2c(Cl)c(OC)cc(OC)c2Cl)ncn1 [Compound 8, N-[2-[[6-[2-(2,6-dichloro-3,5-dimethoxy-anilino)-3-pyridyl]pyrimidin-4-yl]amino]-5-[(1-methyl-4-piperidyl)oxy]phenyl]prop-2-enamide], the IC50 [1, 12] is reported as no less than 1000 nM, the IC50 [2, 13] is reported as 100 to 1000 nM and the IC50 [3, 14] is reported as no less than 1000 nM. It also gave an IC50 [4, 15] of no more than 10 nM.
C=CC(=O)Nc1cc(OC2COC2)ccc1Nc1cc(-c2cccnc2Nc2c(Cl)c(OC)cc(OC)c2Cl)ncn1 [Compound 11, N-[2-[[6-[2-(2,6-dichloro-3,5-dimethoxy-anilino)-3-pyridyl]pyrimidin-4-yl]amino]-5-(oxetan-3-yloxy)phenyl]prop-2-enamide] gave an IC50 [1, 12] of no less than 1000 nM, an IC50 [2, 13] of no less than 1000 nM and an IC50 [3, 14] of no less than 1000 nM. The IC50 [4, 15] was no more than 10 nM.
C=CC(=O)N[C@H]1CCOC[C@H]1Nc1cc(-c2cccnc2Nc2c(Cl)c(OC)cc(OC)c2Cl)ncn1 [Compound 4] gave an IC50 [4, 15] of 10 to 100 nM.
In the case of C=CC(=O)Nc1ncn(C)c1Nc1cc(-c2cccnc2Nc2c(Cl)c(OC)cc(OC)c2Cl)ncn1 [Compound 13, N-[5-[[6-[2-(2,6-dichloro-3,5-dimethoxy-anilino)-3-pyridyl]pyrimidin-4-yl]amino]-1-methyl-imidazol-4-yl]prop-2-enamide], the IC50 [4, 15] is reported as no less than 1000 nM.
With C=CC(=O)Nc1cc(OCCN(CC)CC)ccc1Nc1cc(-c2cccnc2Nc2c(Cl)c(OC)cc(OC)c2Cl)ncn1 [Compound 15] the IC50 [1, 12] was no less than 1000 nM, the IC50 [2, 13] was no less than 1000 nM and the IC50 [3, 14] was no less than 1000 nM. For the same compound, the IC50 [4, 15] was no more than 10 nM.
Work on C=CC(=O)Nc1cc(OC2CCN(C)C2)ccc1Nc1cc(-c2cccnc2Nc2c(Cl)c(OC)cc(OC)c2Cl)ncn1 (centres unmarked) [Compound 9, N-[2-[[6-[2-(2,6-dichloro-3,5-dimethoxy-anilino)-3-pyridyl]pyrimidin-4-yl]amino]-5-(1-methylpyrrolidin-3-yl)oxy-phenyl]prop-2-enamide] yielded an IC50 [1, 12] of 100 to 1000 nM, an IC50 [2, 13] of 100 to 1000 nM and an IC50 [3, 14] of no less than 1000 nM. It also gave an IC50 [4, 15] of no more than 10 nM.
C=CC(=O)Nc1cc(OCCN2CCCC2)ccc1Nc1cc(-c2cccnc2Nc2c(Cl)c(OC)cc(OC)c2Cl)ncn1 [Compound 12, N-[2-[[6-[2-(2,6-dichloro-3,5-dimethoxy-anilino)-3-pyridyl]pyrimidin-4-yl]amino]-5-(2-pyrrolidin-1-ylethoxy)phenyl]prop-2-enamide] gave an IC50 [1, 12] of 100 to 1000 nM, an IC50 [2, 13] of 100 to 1000 nM and an IC50 [3, 14] of no less than 1000 nM. The IC50 [4, 15] was no more than 10 nM.
C=CC(=O)Nc1cc(OCCN(C)C)ccc1Nc1cc(-c2cccnc2Nc2c(Cl)c(OC)cc(OC)c2Cl)ncn1 [Compound 14] gave an IC50 [1, 12] of no less than 1000 nM, an IC50 [2, 13] of no less than 1000 nM and an IC50 [3, 14] of no less than 1000 nM. For the same compound, the IC50 [4, 15] was no more than 10 nM.
For C=CC(=O)Nc1cc(OCC2CN(C)C2)ccc1Nc1cc(-c2cccnc2Nc2c(Cl)c(OC)cc(OC)c2Cl)ncn1 [Compound 7, N-[2-[[6-[2-(2,6-dichloro-3,5-dimethoxy-anilino)-3-pyridyl]pyrimidin-4-yl]amino]-5-[(1-methylazetidin-3-yl)methoxy]phenyl]prop-2-enamide], the IC50 [1, 12] was 100 to 1000 nM, the IC50 [2, 13] was 100 to 1000 nM and the IC50 [3, 14] was no less than 1000 nM. It also gave an IC50 [4, 15] of no more than 10 nM.
